Experimental data taken from patent EP0289070A1, “Tertiary arylethyl amine derivatives having opiate-antagonistic activity” (DUPHAR INTERNATIONAL RESEARCH B.V, priority 1987, dated 1988).
pKi: −log10 of the molar value. Like-named read-outs stand apart in the source and are kept apart here.

Columns and labels:
[1] = target: cholinergic muscarine receptors; type: binding, rat
[2] = target: (mainly u.-type) opiate receptors (Rattus norvegicus, UniProt P33535); assay: Affinity to opiate receptors: [3H]-naloxone displacement in rat brain homogenates; type: binding
Sequence of (mainly u.-type) opiate receptors (P33535 whole entry): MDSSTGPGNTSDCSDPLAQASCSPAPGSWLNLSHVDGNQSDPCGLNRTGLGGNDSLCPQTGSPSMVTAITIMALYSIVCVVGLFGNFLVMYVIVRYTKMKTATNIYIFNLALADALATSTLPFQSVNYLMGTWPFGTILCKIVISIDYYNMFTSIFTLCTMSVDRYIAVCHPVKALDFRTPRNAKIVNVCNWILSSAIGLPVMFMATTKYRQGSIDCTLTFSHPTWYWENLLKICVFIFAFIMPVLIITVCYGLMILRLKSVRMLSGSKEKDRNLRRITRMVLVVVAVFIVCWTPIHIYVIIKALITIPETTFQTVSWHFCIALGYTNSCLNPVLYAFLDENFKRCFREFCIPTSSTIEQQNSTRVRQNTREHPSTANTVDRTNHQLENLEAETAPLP

[3] = [^3H] QNB displacement expressed in Ki; homogenates of rat brains; read-out: Affinity to muscarine receptors 2)

CCCN(CCCC(=O)C1CCCCC1)C(C)Cc1ccc(O)cc1 (racemic) [a]
pKi [1, 3]: 8.28

CCN(CCCC(=O)C1CCCCC1)C(C)Cc1ccc(O)cc1 (racemic) [b]
pKi [1, 3]: 8.02

CCCC(=O)CCCN(CC)C(C)Cc1ccc(OC)cc1 (racemic) [e, reference compound]
pKi [1, 3]: 7.55

CCN(CCCC(=O)C1CCCCC1)C(C)Cc1ccc(Cl)cc1 (racemic) [f, reference compound]
pKi [1, 3]: 8.08

CCN(CCCC(=O)C1CCCCC1)C(C)Cc1ccc(OC)cc1 (racemic) [g, reference compound]
pKi [1, 3]: 8.57

CN1[C@@H]2CC[C@H]1C[C@@H](OC(=O)C(CO)c1ccccc1)C2 (stereo partly shown) [atropine, reference compound]
pKi ([1]; read-out: Affinity to muscarine receptors 2)): 8.85

CCN(CCCC(=O)C1CCCCC1)[C@H](C)Cc1ccc(O)cc1 [c]
opiate-antagonistic activity [2]: found substantially entirely in the R isomer
pKi [1, 3]: 6.35

CCN(CCCC(=O)C1CCCCC1)[C@@H](C)Cc1ccc(O)cc1 [d]
pKi [1, 3]: 8.39
muscarinolytic activity ([1]; pure R and S isomers of racemic compound b compared): found substantially exclusively in the S isomer
